Several values for one entry are separate records, joined by “and”; a condition that tells them apart may be missing. Equal entries are not always repeated.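 Exposure lasted 48 hours, with cells grown in 96-well plates and compounds tested at five concentrations. The concentration for 50% growth inhibition is given as GI50. Definition used: TGI = concentration required for complete inhibition of growth.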
How the values were obtained:
Experiment in all cases: growth of human tumour cells (NCI), 48 h
SK-MEL-5 melanoma = system: SK-MEL-5 melanoma
SR leukemia = system: SR leukemia
SN12C renal = system: SN12C renal
SF-539 CNS = system: SF-539 CNS
786-0 renal = system: 786-0 renal
M14 melanoma = system: M14 melanoma
MCF7 breast = system: MCF7 breast
HS 578T breast = system: HS 578T breast
SF-295 CNS = system: SF-295 CNS
UACC-62 melanoma = system: UACC-62 melanoma

SMILES	GI50 (SK-MEL-5 melanoma) [µM]	TGI (SK-MEL-5 melanoma)	GI50 (SR leukemia) [µM]	GI50 (SN12C renal) [µM]	TGI (SN12C renal)	GI50 (SF-539 CNS) [µM]	TGI (SF-539 CNS) [µM]	GI50 (786-0 renal) [µM]	TGI (786-0 renal) [µM]	GI50 (M14 melanoma) [µM]	TGI (M14 melanoma)	GI50 (MCF7 breast) [µM]	TGI (MCF7 breast) [µM]	GI50 (HS 578T breast) [µM]	TGI (HS 578T breast) [µM]	GI50 (SF-295 CNS) [µM]	TGI (SF-295 CNS) [µM]	GI50 (UACC-62 melanoma) [µM]	TGI (UACC-62 melanoma)	TGI (SR leukemia)
COc1ccc2nc3cc([N+](=O)[O-])ccc3c(NCCO)c2c1	1.61	3.26 µM	3.13	2.51	30.8 µM	3.35	13	2.5	11.4	1.89	4.28 µM	1.11	4.17	2.94	26.2	3.49	15.7	1.93	5.23 µM	
CCOC(=O)C#Cc1cccc(C#CC(=O)OCC)c1		8.29 µM			8.21 µM		9.65		8.85		5.95 µM		15.6		> 30.3		3.48		9.53 µM	3.25 µM
Nc1nc2ccc(CNc3ccc(C(=O)NC(CC(=O)O)C(=O)O)cc3)cc2c(=O)[nH]1 (stereo unspecified)	5.35	> 100 µM	0.52	3.86	> 100 µM	3.3	> 100	2.18	> 100		> 100 µM	1.2	> 100	> 64.2	> 100	1	> 28.7	5.89	> 100 µM	> 100 µM
C=C(C(=O)c1ccccc1)C(NC(C)(C)C)c1ccccc1 (stereo unspecified)	1.45	2.82 µM	1.56	2.12	5.38 µM	3.21	8.36	2.06	4.08	1.87	4.65 µM	1.06	8.21	5.56	75.9	2.9	10.8	1.54	4.02 µM	8.41 µM
CCc1ccc(Oc2c(-c3ccc(OCCc4cccc(C(F)(F)F)c4)cc3O)n[nH]c2C(F)(F)F)cc1	5.13	11 µM	3.06	2.4	8.35 µM	7.39	14	6.38	12.9	5.23	11.9 µM	2.24	7.82	6.04	15.4	8.12	15.4	3.44	10.4 µM	12 µM
CC(C)(C)N1CC1CNC(=O)C(=O)NCC1CN1C(C)(C)C (stereo unspecified)		45.2 µM			15.7 µM		13.7		4.31		16.6 µM		> 100		> 100		14.3		6.82 µM	13.3 µM
Clc1nc(Cl)c2ncn(-c3ccccc3)c2n1	10.4	22.3 µM	2.73	7.45	21.5 µM	10.6	27.3	5.51	18.3	1.86	3.85 µM	4.09	24.3	7.13	64.9	10.3	23	11.3	25.3 µM	9.51 µM
CC[C@]12C=CCN3CC[C@@]4(c5ccc(OC)cc5N(C)[C@H]4[C@@](O)(C(=O)OC)[C@@H]1OC(=O)CCC(=O)O[C@H]1CC[C@H]4[C@@H]5CCC6=CC(=O)CC[C@@H]6[C@H]5CC[C@]14C)[C@@H]32	0.99	2.1 µM	1.52	1.64	> 50 µM	1.75	7.21	1.99	> 50	1.92	> 50 µM	1.52	> 50	2.38	> 50	1.69	> 50	1.12	3.13 µM	> 50 µM
O=S(=O)(NCCNc1nccc(-c2c(-c3ccc(F)cc3)nc3sccn23)n1)c1ccc(O)cc1	1.39	10.7 µM	1.82	3.9	76.6 µM	11.3	30.7	4.26	39.7	3.36	18.1 µM	0.476	14.4	6.48	42.7	10.4	34.6	2.35	18.8 µM	21.5 µM
COc1cc(/C=C2\CCC/C(=C\c3cc(CN4CCCC4)c(O)c(OC)c3)C2=O)cc(CN2CCCC2)c1O	4.12	15.5 µM	2.56	4.89	21.2 µM	1.72	3.63	3.15	14.7	2.9	8.63 µM	4.82	23.6	5.75	50.9	9.89	25.2	3.45	12.9 µM	11.8 µM
C=C(C)COc1ccc2c(c1)CCC1C2CCC2(C)C(=O)/C(=N/O)CC12 (stereo unspecified)		21.1 µM			14 µM		26.3		13		14.4 µM		10.5		27.7		19.3		28.5 µM	4.14 µM
CCCCCCCCCCCCC(O)C1CCC(C(O)CCCCC(O)CCCCCC2CC(CC(C)=O)C(=O)O2)O1 (stereo unspecified)	0.112	2.11 µM and 5.09 µM	2.8	2.54	8.27 µM and 20.2 µM	2.36	21.1	3.91	19.7	1.66	3.33 µM and 22.2 µM		3.82		3.8	0.508	13.5	1.38	3.66 µM and 16.3 µM	6.93 µM and 25.5 µM
O=C(/C=C(/C=C/c1cccc2[nH]ccc12)OB(F)F)/C=C/c1cccc2[nH]ccc12	1.26	2.73 µM	0.46	0.687	5.45 µM	2.16	5.86	0.477	5.03	1.07	6.93 µM	0.436	9.45	1.5	> 100	1.76	4.61	0.833	2.97 µM	> 100 µM
